Laboratory results from patent US20170165230A1, “USE OF GSK-3 INHIBITORS OR ACTIVATORS WHICH MODULATE PD-1 OR T-BET EXPRESSION TO MODULATE T CELL IMMUNITY” (priority 2014, published 2017).
Entries after “also recorded” stand apart in the source; their conditions may differ.

How the values were obtained:
[1] = system: PD-1 expression on T-cells; experiment: FACS of PD-1 expression on T-cells activated with anti-CD3 (2C11) for 48 hours; format: cell-based, mouse; settings: anti-CD3 (2C11) 48 hours; anti-CD3 increased MFI by 5 fold (FIG. 4)
Description: For anti-CD3 activation of T-cells, cells were stimulated with 5 μg/ml of anti-CD3 (2C11) in RPMI medium supplemented with 10% FCS, 2 mM glutamine, 50 uM 2-ME, 100 U/ml penicillin/streptomycin for 2-4 days using established methods.
(§1) The presence of cells was confirmed by using forward scatter height or side scatter height n the form of a dot and contor plots. […] Non-stained cells were used a control.
(§2) The chemical structures of each inhibitor are shown on bottom and right sides of figure.
as §2

[2] = system: PD-1 expression on T-cells; experiment: FACS of PD-1 expression induced by mixed lymphocyte reaction (C57Bl/6 + ICR/CD1 spleen T-cells, 60 hours); format: cell-based, mouse; settings: C57Bl/6 + ICR/CD1 co-culture, 60 hours (FIG. 5, 6)
Description: Cell flow cytometry with an acquisition of 10 000 events and data analysis using FlowJo).
C57BL/6J (B6) or outbred mouse CRI/CD1 T-cells were cultivated either alone or together at equal numbers (1×10^6/ml) for 60 hours in the presence or absence of the inhibitor followed by the harvesting of cells and FACs analysis for PD-1 using anti-PD-1-PE.

[3] = system: CTLA-4 (CD152) expression; experiment: FACS of CTLA-4 (CD152) expression on T-cells from EL4-OVA tumor-bearing mice treated in vivo; parameters: species or system mouse; settings: EL4-OVA model (FIG. 12e)
EL4 tumor cells = experiment: Intradermal EL4 / EL4-OVA tumor model in OT-1 Tg mice, tumor growth; format: in vivo, mouse; settings: OVA peptide 2, 5 and 10 ug, 10 days, young mice 4-6 weeks (FIG. 9a)
[4] = system: PD-1 expression on OT-1 T-cells; experiment: FACS of PD-1 surface expression on OT-1 T-cells stimulated in vitro by OVA peptide presented by EL-4 cells; format: cell-based, mouse; settings: OT-1 T-cells stimulated in vitro by OVA peptide presented by EL-4 cells (FIG. 1, 2, 3, 11)
Description: (§3) Non-stained cells were used a control.
(§4) Cells were then stained for FACs with APC conjugated anti-PD-1 (CD279) (a, b) or subjected to qPCR (c, d) as described in the Materials and Methods. Reverse transcription was performed using the RNA polymerase chain reaction (PCR). PCRs were amplified for 40 cycles in a sequence detection system. mRNA expression was normalized against GAPDH (Glyceraldehyde 3-phosphate dehydrogenase) expression using the standard curve method.
T-cells were incubated in the presence or absence of anti-PD-1 and then subjected to FACs or qPCR as described in the Materials and Methods.

Tbet transcription = experiment: qPCR of Tbet transcription in cells from EL4-OVA tumor-bearing OT-1 Tg mice; format: in vivo, mouse; settings: cells at day 12, mice 4-6 weeks (FIG. 9c)
Description: (§5) Single-strand cDNA was synthesized with an RT-PCR kit (Qiagen, Hilden, Germany) according to the manufacturer's instructions. Reverse transcription was performed using the RNA polymerase chain reaction (PCR) core kit (Applied Biosystems). Relative quantitative real-time PCR used SYBR green technology (Roche) on cDNA generated from the reverse transcription of purified RNA. After preamplification (95° C. for 2 min), the PCRs were amplified for 40 cycles (95° C. for 15 s and 60° C. for 60 s) in a sequence detection system (PE Prism 7000; Perkin-Elmer Applied Biosystems, USA). mRNA expression was normalized against GAPDH expression using the standard curve method. […]

EL4-OVA target cells = experiment: Cytotoxicity assay: OT-1 CD8+ CTL killing of EL4-OVA target cells; settings: over a range of target:effector ratios (FIG. 1e,f)
Description: Cytotoxicity was assayed using a Cytotox 96 nonradioactive kit (Promega) following the instructions provided and using established methods. In brief, purified T cells were plated in 96-well plates at the effector/target ratios shown using 10^4 EL4 (ova peptide-pulsed) target cells per well in a final volume of 200 μl per well using RPMI lacking phenol red. Target cells per well were in a final volume of 200 μl per well using RPMI lacking phenol red. Lactate dehydrogenase release was assayed after 4 h incubation at 37° C. by removal of 50 μl supernatant from each well and incubation with substrate provided for 30 min and the absorbance read at 490 nm using the Thermomax plate reader (Molecular Devices). Percentage cytotoxicity=((experimental effectorspontaneous−target spontaneous)/(targetmaximum−target spontaneous))×100.

[5] = system: panel of 24 other protein kinases; settings: selectivity; cited from earlier work
[6] = system: Interferon-γ1 (IFN-γ1) expression; experiment: FACS of IFN-γ1 expression on T-cells from EL4-OVA tumor-bearing mice treated in vivo; parameters: species or system mouse; settings: EL4-OVA model (FIG. 12b,c)
[7] = system: PD-1 expression on T-cells; experiment: FACS of PD-1 expression on T-cells from EL4-OVA tumor-bearing mice treated in vivo; parameters: species or system mouse; settings: EL4-OVA model
[8] = system: Tbet (Tbx21) transcription; experiment: qPCR of Tbet transcription in OT-1 T-cells stimulated in vitro by OVA peptide/EL4; format: cell-based, mouse; settings: OT-1 T-cells stimulated by OVA peptide in vitro (FIG. 1d)
Description: Single-strand cDNA was synthesized with an RT-PCR kit (Qiagen, Hilden, Germany) according to the manufacturer's instructions. Reverse transcription was performed using the RNA polymerase chain reaction (PCR) core kit (Applied Biosystems). Relative quantitative real-time PCR used SYBR green technology (Roche) on cDNA generated from the reverse transcription of purified RNA. After preamplification (95° C. for 2 min), the PCRs were amplified for 40 cycles (95° C. for 15 s and 60° C. for 60 s) in a sequence detection system (PE Prism 7000; Perkin-Elmer Applied Biosystems, USA). mRNA expression was normalized against GAPDH expression using the standard curve method.
as §4

FasL expression [9] = experiment: FACS of FasL expression on T-cells from EL4-OVA tumor-bearing mice treated in vivo; parameters: species or system mouse; settings: negative control (FIG. 9d)
From the text: Tumors were visible after 1 wk and grew progressively in an encapsulated fashion. Mice were young at 4-6 weeks.

CD69 expression = experiment: FACS of CD69 expression on T-cells from EL4-OVA tumor-bearing mice treated in vivo; parameters: species or system mouse; settings: EL4-OVA model (FIG. 12d)
PD-1 transcription = experiment: qPCR of PD-1 transcription in cells from EL4-OVA tumor-bearing OT-1 Tg mice; format: in vivo, mouse; settings: cells at day 12, mice 4-6 weeks (FIG. 9b)
Description: as §5

CD3 expression = experiment: FACS of CD3 expression on OVA-activated OT-1 T-cells; format: cell-based, mouse
From the text: as §1

FasL expression [10] = experiment: FACS of FasL expression on OVA-activated OT-1 T-cells; format: cell-based, mouse
From the text: as §3

[11] = system: PD-1 expression on T-cells; experiment: FACS of PD-1 expression on Con A activated T-cells; format: cell-based, mouse; settings: Con A activated T-cells (FIG. 5f)
From the text: Another mode of T-cell activation involves the stimulation by the lectin Concanavalin A (Con A) (e, f). ConA binds α-D-mannosyl and α-D-glucosyl residues (two hexoses differing only by the alcohol on carbon 2) in terminal position of ramified structures from B-Glycans (reach in α-mannose, or hybrid and bi-antennary glycanes complexes). Con A is known to induce cell agglutination/clustering and to stimulate mouse T-cell subsets giving rise to four functionally distinct T cell populations, including precursors to suppressor T-cell (Dwyer and Johnson 1981 Clin Exp Immunol 46 (2): 237-49). (e) contains the bright field images of Con A activated cells with cell clustering observed in the presence and absence of GSK-3 inhibitor TDZD-8.

[12] = Oral administration in drinking water, cell numbers and viability of spleen cells
Description: A stock solution 1 mg/ml was made in 1% DMSO. In one set, the 10 ug stock solution was diluted in 10 ml of water. […] By 48 hours, all water was consumed. Mice were then sacrificed, spleen extracted on 60 hours, cells were spun down at 1,800 for 3 min and ACK for removal of red blood cells (RBCs) treated for 2 min. Cells were then centrifuged at 1,800 rpm for 3 min and the absence of red blood cells was confirmed by the loss of red color in the cell pellet. […] An additional stimulant of 2 ug/ml ConA was also added at 48 hours of culture.
Ex vivo extracted cells were then cultured in 48 well tissue culture plates for 48 hours in the presence of anti-CD3 on plates (1 ug/ml).

[13] = system: PD-1 expression on T-cells; experiment: Oral administration in drinking water, PD-1 expression on ex vivo anti-CD3 activated spleen cells; parameters: species or system mouse; settings: B6 mice
Description: . […] By 48 hours, all water was consumed. […] Non-stained cells were used a control.

## COc1ccc(CNC(=O)Nc2ncc([N+](=O)[O-])s2)cc1 [AR-A014418, N-[(4-Methoxyphenyl)methyl]-N′-(5-nitro-2-thiazolyl)urea]
[1]
  inhibition of anti-CD3 induced increase in PD-1 expression (MFI): > 45%
[2]
  PD-1 expression induced in the MLR (FACS): inhibition of PD-1 expression

## Cc1c[nH]c(-c2cnc(NCCNc3ccc(C#N)cn3)nc2-c2ccc(Cl)cc2Cl)n1.Cl [CHIR-99021, 6-(2-(4-(2,4-dichlorophenyl)-5-(4-methyl-1H-imidazol-2-yl)pyrimidin-2-ylamino)ethylamino)nicotinonitrile hydrochloride]
[1]
  inhibition of anti-CD3 induced increase in PD-1 expression (MFI): > 55%
[2]
  PD-1 expression induced in the MLR (FACS): inhibition of PD-1 expression

## Cn1cc(C2=C(c3ccc(Cl)cc3Cl)C(=O)NC2=O)c2ccccc21 [SB216763, 3-(2,4-dichlorophenyl)-4-(1-methyl-1H-indol-3-yl)-1H-pyrrole-2,5-dione]
[3]
  CTLA-4 expression after in vivo administration (FACS): minor increase
EL4 tumor cells
  tumor growth: prevented tumor growth at all concentrations of OVA peptide
[4]
  PD-1 surface expression (FACS profile): reduced PD-1 expression; also recorded: decreased the number of cells expressing PD-1
Tbet transcription
  Tbet transcription in vivo (qPCR): increased Tbet transcription
EL4-OVA target cells
  OT-1 CTL killing of EL4-OVA targets (CTL function): increase CTL function
[5]
  inhibition of a panel of 24 other protein kinases: Neither compound significantly inhibited any member
[6]
  IFN-γ1 expression after in vivo administration (FACS): increase expression of IFN-γ1 on a greater number of cells
[7]; mice 4-6 weeks (FIG. 9d)
  PD-1 expression on T-cells after in vivo administration (flow cytometry): PD-1 expression is reduced
[7]; tumor elimination (FIG. 12a)
  PD-1 expression on T-cells after in vivo administration (FACS): down-regulation of PD-1
[8]
  Tbet transcription (qPCR): increased Tbet transcription
FasL expression [9]
  FasL expression after in vivo administration (flow cytometry): absence of an effect on FasL expression
CD69 expression
  CD69 expression after in vivo administration (FACS): minor increase in CD69 expression
PD-1 transcription
  PD-1 transcription in vivo (qPCR): inhibition of PD-1 transcription at all doses of OVA peptide
CD3 expression
  CD3 expression (FACS profile): unaltered CD3 expression
FasL expression [10]
  FasL expression (FACS profile): unaltered FasL expression

## Cn1sc(=O)n(Cc2ccccc2)c1=O [TDZD-8, 1,2,4-Thiadiazolidine-3,5-dione, 2-methyl-4-(phenylmethyl)]
[11]
  fewer PD-1 positive cells: > 45%
[1]
  inhibition of anti-CD3 induced increase in PD-1 expression (MFI): > 50%
[12]; 48 hours ex vivo culture (FIG. 13b,c)
  cell death / viability of cells in ex vivo culture after oral administration: no indication of cell death; also recorded: no obvious long-term effect on viability
[12]; oral, 2 mg/kg, spleen extracted at 60 hours
  spleen cell numbers, drug treated versus untreated mice: No difference on cell numbers
[13]; drug in drinking water (FIG. 13e)
  percentage of T-cells expressing PD-1 after oral administration: reduce the percentage of T-cells expressing PD-1
[13]; drug in drinking water, ex vivo anti-CD3 48 hours (FIG. 13d)
  PD-1 expression on ex vivo cells after oral administration (FACS): lower expression of PD-1
